# Source: patent publication US10144746B2 (GLOBAL BLOOD THERAPEUTICS, INC., priority 2015, dated 2018)
# Counter-ions that a name gives are not always drawn.
# Molecular target: Human plasma kallikrein (Homo sapiens (Human), UniProt P03952)
# Experiment: In vitro plasma kallikrein inhibition assay (chromogenic substrate D-Pro-Phe-Arg-pNa, absorbance at 405 nm, IC50 determination)
# Type: biochemical
# Settings: not given
# Procedure: In Vitro Plasma Kallikrein Inhibition Assay
# The chromogenic substrate D-Pro-Phe-Arg-pNa, 2HCl (BIOPHEN CS-31(02) from Hyphen BioMed, Neuville-Sur-oise, France) was dissolved in 5 mL deionized water and stored at 4° C. […] All other chemicals were of analytical grade.
# A stock solution of 7 μM in 50% glycerol was stored at −20° C.
# Enzyme reactions were conducted in “assay buffer” comprised of 20 mM HEPES at pH 7.4, 150 mM NaCl, 0.1% PEG-8000 and 0.01% Triton X-100.
# Both enzyme and substrate were diluted in assay buffer.
# Plate measurements were conducted using a SPECTROStar Nano reader (BMG Labtech, San Francisco, Calif., USA). […] We used discrete wavelength, precise, kinetic reads of 15 cycles with a 60 sec cycle time.
# Determination of IC50 values
# The test compound was dissolved in 100% DMSO. The compounds were serially diluted in DMSO in a 7 point dose response. For the assays, 66.5 μL of protease solution (protease in assay buffer) was added per well followed by the addition of 8.5 μL of compound in 100% DMSO. […] After 30 min. incubation at room temperature on an orbital shaker, the reactions were started by the addition of 10 μL substrate solution (in assay buffer, final assay concentration was 600 uM). After the addition of the substrate solution the final DMSO concentration was 10%. The plate was placed again on the shaker for 5 sec, spun at 2000 rpm for 5 sec and read on the spectrophotometer. […] The IC50 value was calculated from the plot of rate vs. inhibitor concentration by a 4 parameter logistic equation: y=A+((B−A)/([…]))
# where y is the rate at the inhibitor concentration, x. A is the minimum y value at the highest inhibitor concentration and B is the y value in the absence of inhibitor, C is the IC50 value and D is the slope factor. The curve fitting was conducted with the non-linear regression routine of the analysis software XLfit (IDBS, version 5.3.1).
# Chain of Human plasma kallikrein (P03952 391-638): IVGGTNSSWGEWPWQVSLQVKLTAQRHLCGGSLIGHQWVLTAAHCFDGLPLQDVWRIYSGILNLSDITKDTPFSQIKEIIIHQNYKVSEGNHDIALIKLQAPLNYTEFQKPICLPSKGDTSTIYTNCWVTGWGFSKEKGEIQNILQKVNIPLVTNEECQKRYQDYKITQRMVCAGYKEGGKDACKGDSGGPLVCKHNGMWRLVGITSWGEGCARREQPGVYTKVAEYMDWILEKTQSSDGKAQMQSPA
# Chain of Human plasma kallikrein (P03952 20-390 partner): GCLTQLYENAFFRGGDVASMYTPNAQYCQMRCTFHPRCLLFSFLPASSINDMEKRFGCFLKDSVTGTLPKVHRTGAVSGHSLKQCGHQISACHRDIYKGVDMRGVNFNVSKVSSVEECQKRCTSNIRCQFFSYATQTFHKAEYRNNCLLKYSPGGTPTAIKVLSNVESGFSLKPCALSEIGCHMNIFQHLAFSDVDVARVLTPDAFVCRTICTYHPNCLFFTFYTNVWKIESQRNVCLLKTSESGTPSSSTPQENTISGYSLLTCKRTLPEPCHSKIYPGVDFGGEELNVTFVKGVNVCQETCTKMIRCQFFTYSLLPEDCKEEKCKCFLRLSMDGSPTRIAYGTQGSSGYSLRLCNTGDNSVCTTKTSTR
row,KLKB1 pIC50,SMILES
1,6.91,Cc1cc(N)nc(C)c1CNC(=O)c1ccc2c(c1)C1OC2c2ccc(-c3ccccc3F)cc21 (centres unmarked)
2,6.55,Cc1cc(N)nc(C)c1CNC(=O)c1ccc2c(c1)C1OC2c2cc(N3CCN(C(=O)c4ccccc4)CC3)ccc21 (centres unmarked)
3,5,Cc1c(CNC(=O)c2ccc3c(c2)C2OC3c3ccc(-c4cccc(F)c4F)cc32)c(F)cc2c1CNC2 (centres unmarked)
4,4.44,Cc1cc(N)nc(C)c1CNC(=O)c1ccc2c(c1)[C@H]1O[C@@H]2c2ccc(-c3ccc(F)cc3F)cc21

row,SMILES,KLKB1 pIC50
1,Cc1cc(N)nc(C)c1CNC(=O)c1ccc2c(c1)C1OC2c2ccc(Br)cc21 (centres unmarked),6

# Same assay, conditions: read-out: KLKB1 pIC50 (converted)
row,SMILES,IC50 [nM]
1,Cc1cc2c(c(C)c1CNC(=O)c1ccc3c(c1)C1OC3c3ccc(-c4ccc(F)cc4F)cc31)CNC2 (racemic),316
2,Cc1cc(N)nc(C)c1CNC(=O)c1ccc2c(c1)C1OC2c2ccccc21 (racemic) [Example 1],6310
3,Cc1cc(N)nc(C)c1CNC(=O)c1ccc2c(c1)C1OC2c2ccc(C[N+]3([O-])CCOCC3)cc21 (racemic) [Example 50],3550
4,Cc1cc(N)nc(C)c1CNC(=O)c1ccc2c(c1)C1OC2c2ccc(Nc3ccn(C)n3)cc21 (racemic) [Example 51],933
5,Cc1cc(N)nc(C)c1CNC(=O)c1ccc2c(c1)C1OC2c2cc(Nc3ccnn3C)ccc21 (racemic) [Example 54],457
6,Cc1cc(N)nc(C)c1CNC(=O)c1ccc2c(c1)C1OC2c2ccc(-c3ccc(F)cc3C#N)cc21 (racemic) [Example 69],6.31
7,"Cc1cc2c(c(C)c1CNC(=O)c1ccc3c(c1)C1OC3c3ccc(-c4cccc(F)c4F)cc31)CNC2 (racemic) [Example 100, trifluoroacetate salt]",6170
8,Cc1cc(N)nc(C)c1CNC(=O)c1ccc2c(c1)C1OC2c2ccc(-c3ccc(F)c(F)c3F)cc21 (racemic) [Example 104],28.2
9,COc1cc(N)nc(C)c1CNC(=O)c1ccc2c(c1)C1OC2c2ccc(-c3ccc(C)cc3C#N)cc21 (racemic) [Example 105],15.1
10,Cc1cc(N)nc(C)c1CNC(=O)c1ccc2c(c1)C1OC2c2ccc(-c3ccc(Cl)c(F)c3F)cc21 (racemic) [Example 106],22.9
11,"Cc1cc(N)nc(C)c1CNC(=O)c1ccc2c(c1)C1OC2c2ccc(-c3ccc(F)c4c3OCO4)cc21 (racemic) [Example 108, trifluoroacetate salt]",25.7
12,"Cc1cc(N)nc(C)c1CNC(=O)c1ccc2c(c1)C1OC2c2ccc(-c3ncccc3F)cc21 (racemic) [Example 110, trifluoroacetate salt]",162
13,"COc1cc(N)nc(C)c1CNC(=O)c1ccc2c(c1)C1OC2c2ccc(Cn3cc(C)cn3)cc21 (racemic) [Example 132, (±)-N-[(6-amino-4-methoxy-2-methylpyridin-3-yl)methyl]-12-[(4-methyl-1H-pyrazol-1-yl)-methyl]-15-oxatetracyclo[6.6.1.0^2,^7.0^9,1^4]-pentadeca-2,4,6,9,11,13-hexaene-4-carboxamide]",2

# Continued, values first:
row,IC50 [nM],SMILES
1,45.7,"Cc1cc(N)nc(C)c1CNC(=O)c1ccc2c(c1)C1OC2c2ccc(-c3ncc(F)cc3F)cc21 (racemic) [Example 116, (±)-N-[(6-amino-2,4-dimethylpyridin-3-yl)-methyl]-12-(3,5-difluoropyridin-2-yl)-15-oxatetracyclo[6.6.1.0^2,^7.0^9,1^4] pentadeca-2,4,6,9,11,13-hexaene-4-carboxamide]"
2,3.98,"COc1cc(N)nc(C)c1CNC(=O)c1ccc2c(c1)C1OC2c2ccc(Cn3cccn3)cc21 (racemic) [Example 117, (±)-N-[(6-amino-4-methoxy-2-methylpyridin-3-yl)methyl]-12-[(1H-pyrazol-1-yl)methyl]-15-oxatetracyclo[6.6.1.0^2,^7.0^9,1^4] pentadeca-2,4,6,9,11,13-hexaene-4-carboxamide]"
3,64.6,"Cc1ccc(-c2ccc3c(c2)C2OC3c3ccc(C(=O)NCc4c(C)cc(N)nc4C)cc32)c(F)c1F (racemic) [Example 118, (±)-N-[(6-amino-2,4-dimethylpyridin-3-yl)-methyl]-12-(2,3-difluoro-4-methylphenyl)-15-oxatetracyclo[6.6.1.0^2,^7.0^9,1^4] pentadeca-2,4,6,9,11,13-hexaene-4-carboxamide]"
4,427,"Cc1cc(N)nc(C)c1CNC(=O)c1ccc2c(c1)C1OC2c2ccc(-c3ccc(C(F)(F)F)c(F)c3F)cc21 (racemic) [Example 119, (±)-N-[(6-amino-2,4-dimethylpyridin-3-yl)-methyl]-12-[2,3-difluoro-4-(trifluoromethyl)-phenyl]-15-oxatetracyclo[6.6.1.0^2,^7.0^9,1^4] pentadeca-2,4,6,9,11,13-hexaene-4-carboxamide]"
5,676,"Cc1cc(N)nc(C)c1CNC(=O)c1ccc2c(c1)C1OC2c2ccc(Oc3ccc(F)cc3F)cc21 (racemic) [Example 120, (±)-N-[(6-amino-2,4-dimethylpyridin-3-yl)-methyl]-12-(2,4-difluorophenoxy)-15-oxatetra-cyclo[6.6.1.0^2,^7.0^9,1^4] pentadeca-2,4,6,9,11,13-hexaene-4-carboxamide]"
6,437,"Cc1cc(N)nc(C)c1CNC(=O)c1ccc2c(c1)C1OC2c2ccc(-c3ccc(F)c(C(F)(F)F)c3)cc21 (racemic) [Example 121, (±)-N-[(6-amino-2,4-dimethylpyridin-3-yl)-methyl]-12-[4-fluoro-3-(trifluoromethyl)phenyl]-15-oxatetracyclo [6.6.1.0^2,^7.0^9,1^4]pentdeca-2,4,6,9,11,13-hexaene-4-carboxamide]"
7,148,"Cc1cc(N)nc(C)c1CNC(=O)c1ccc2c(c1)C1OC2c2ccc(Oc3ccc(F)c(F)c3)cc21 (racemic) [Example 122, (±)-N-[(6-amino-2,4-dimethylpyridin-3-yl)-methyl]-12-(3,4-difluorophenoxy)-15-oxatetracyclo[6.6.1.0^2,^7.0^9,1^4] pentadeca-2,4,6,9,11,13-hexaene-4-carboxamide]"
8,282,"Cc1cc(N)nc(C)c1CNC(=O)c1ccc2c(c1)C1OC2c2ccc(-c3ccc4[nH]cnc4c3)cc21 (racemic) [Example 123, (±)-N-[(6-amino-2,4-dimethylpyridin-3-yl)-methyl]-12-(1H-1,3-benzodiazol-5-yl)-15-oxatetracyclo[6.6.1.0^2,^7.0^9,1^4] pentadeca-2,4,6,9,11,13-hexaene-4-carboxamide]"
9,11500,"Cc1cc2c(c(C)c1CNC(=O)c1ccc3c(c1)C1OC3c3ccc(-c4c(C)cccc4F)cc31)CNC2 (racemic) [Example 124, (±)-N-[(4,6-dimethyl-2,3-dihydro-1H-isoindol-5-yl)methyl]-12-(2-fluoro-6-methylphenyl)-15-oxatetracyclo[6.6.1.0^2,^7.0^9,1^4] pentadeca-2,4,6,9,11,13-hexaene-4-carboxamide]"
10,661,"Cc1cc(CN)cc(C)c1CNC(=O)c1ccc2c(c1)C1OC2c2ccc(-c3ccc(Cl)c(F)c3F)cc21 (racemic) [Example 125, (±)-N-{[4-(aminomethy])-2,6-dimethylphenyl]-methyl}-12-(4-chloro-2,3-difluorophenyl)-15-oxatetracyclo-[6.6.1.0^2,^7.0^9,1^4]pentadeca-2,4,6,9,11,13-hexaene-4-carboxamide]"
11,6310,"C#Cc1ccccc1-c1ccc2c(c1)C1OC2c2ccc(C(=O)NCc3c(C)cc(N)nc3C)cc21 (racemic) [Example 126, (±)-N-[(6-amino-2,4-dimethylpyridin-3-yl)-methyl]-12-(2-ethynylphenyl)-15-oxatetra-cyclo[6.6.1.0^2,^7.0^9,1^4]pentadeca-2,4,6,9,11,13-hexaene-4-carboxamide]"
12,977,"COc1ccc(-n2cnnn2)c(CNC(=O)c2ccc3c(c2)C2OC3c3ccc(-c4ccc(F)cc4F)cc32)c1 (racemic) [Example 127, (±)-12-(2,4-difluorophenyl)-N-{[5-methoxy-2-(1H-1,2,3,4-tetrazol-1-yl)phenyl]methyl}-15-oxatetracyclo[6.6.1.0^2,^7.0^9,1^4] pentadeca-2,4,6,9,11,13-hexaene-4-carboxamide]"
13,933,"Cc1cc(N)nc(C)c1CNC(=O)c1ccc2c(c1)C1OC2c2ccc(-c3cccc(S(C)(=O)=O)c3)cc21 (racemic) [Example 128, (±)-N-[(6-amino-2,4-dimethylpyridin-3-yl)-methyl]-12-(3-methanesulfonylphenyl)-15-oxatetracyclo[6.6.1.0^2,^7.0^9,1^4] pentadeca-2,4,6,9,11,13 hexaene-4-carboxamide]"
14,234,"COc1ccc(-n2cnnn2)c(CNC(=O)c2ccc3c(c2)C2OC3c3ccc(-c4ccc(F)cc4F)cc32)c1F (racemic) [Example 129, (±)-12-(2,4-difluorophenyl)-N-{[2-fluoro-3-methoxy-6-(1H-1,2,3,4-tetrazol-1-yl)phenyl]-methyl}-15-oxatetracyclo [6.6.1.0^2,^7.0^9,1^4]-pentadeca-2,4,6,9,11,13-hexaene-4-carboxamide]"
